Experimental data: patent publication US12508300B2, “Acylated GLP-1 derivative” (Sciwind Biosciences Co., Ltd., priority 2019, dated 2025)

Target: T1, trypsin (Bos taurus, UniProt P00760)
T1 construct: purchased Sigma T8003
T1 sequence (P00760 24-246): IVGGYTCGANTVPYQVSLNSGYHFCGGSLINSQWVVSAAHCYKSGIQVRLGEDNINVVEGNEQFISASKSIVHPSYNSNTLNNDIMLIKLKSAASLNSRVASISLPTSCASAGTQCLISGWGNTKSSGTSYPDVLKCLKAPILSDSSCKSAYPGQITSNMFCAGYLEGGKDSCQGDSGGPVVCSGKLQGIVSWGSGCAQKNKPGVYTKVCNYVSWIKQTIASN
Experiment: Trypsin degradation experiments
Assay type: in vitro ADME
Procedure: Pepsin (3200-4500 U/mg protein, from Sigma, catalog number: P6887), trypsin (approximately […] protein, from Sigma, catalog number: T8003).
B: Reaction buffer of trypsin: three 20 mM citric acid-phosphate buffers with different pH (4.0, 6.8, and 8.0) are prepared, then adding 0.005% Tween 20 and 0.001% BSA to prepare a reaction buffer of trypsin.
D: Simulated intestinal fluid containing trypsin (SIF): obtained by taking 0.0684 g of potassium dihydrogen phosphate, adding 2.5 ml of water to dissolve it, adding 0.77 ml of 0.2M sodium hydroxide solution and 5 ml of water, and then adding and dissolving 0.1001 g of trypsin; the pH is measured as 6.82, then diluting by adding water to 10 ml.
An appropriate amount of the stock solution of the test sample is taken respectively, then diluting it to 0.06 mg/ml with reaction buffers of trypsin with different pH; each group of reaction solution is divided into 1 ml/tube, a total of 7 tubes, then mixing well and incubating in a 37° C. water bath for 30 min. […]
HPLC assay is performed with samples from the enzyme degradation experiment. The peak area of the main peak of the sample without enzyme reaction at 0 point (recorded as −5 min) is used as the basal peak area, and the remaining percentage of the peak area of the main peak at different time points after enzyme addition is calculated.

CC[C@H](C)[C@H](NC(=O)[C@H](Cc1ccccc1)NC(=O)[C@H](CCC(=O)O)NC(=O)[C@H](CCCCNC(=O)COCCOCCNC(=O)COCCOCCNC(=O)CC[C@H](NC(=O)CCCCCCCCCCCCCCCCC(=O)O)C(=O)O)NC(=O)[C@H](C)NC(=O)[C@H](C)NC(=O)[C@H](CCC(N)=O)NC(=O)CNC(=O)[C@H](CCC(=O)O)NC(=O)[C@H](CC(C)C)NC(=O)[C@H](Cc1ccc(O)cc1)NC(=O)[C@H](CO)NC(=O)[C@H](CO)NC(=O)[C@@H](NC(=O)[C@H](CC(=O)O)NC(=O)[C@H](CO)NC(=O)[C@@H](NC(=O)[C@H](Cc1ccccc1)NC(=O)[C@@H](NC(=O)CNC(=O)[C@H](CCC(=O)O)NC(=O)C(C)(C)NC(=O)[C@@H](N)Cc1cnc[nH]1)[C@@H](C)O)[C@@H](C)O)C(C)C)C(=O)N[C@@H](C)C(=O)N[C@@H](Cc1c[nH]c2ccccc12)C(=O)N[C@@H](CC(C)C)C(=O)N[C@H](C(=O)N[C@@H](CCCNC(=N)N)C(=O)NCC(=O)N[C@@H](CCCNC(=N)N)C(=O)NCC(=O)O)C(C)C [Semaglutide, N-ε^26-[2-(2-[2-(2-[2-(2[4-(17-carboxyheptadecanoylamino)-4(s)-carboxybutyrylamino]ethoxy)ethoxy]acetylamino)ethoxy]ethoxy)acetyl][Aib^8, Arg^34]GLP-1-(7-37) peptide] was tested, and the “ability against trypsin degradation (in words)” value (pH4.0) was “show the ability against trypsin degradation” and the “degradation rate by trypsin (in words)” value (pH6.8 and 8.0, n=4, FIG. 6) was “basically the same”.
